The values below come from patent US20110251230A1, “THERAPEUTICS FOR NEUROLOGICAL DISORDERS” (UNIVERSITY OF SHEFFIELD, priority 2008, published 2011).

Read-outs that look alike come from different tables or passages of the source.

Data set [1] has as its system NRF2-ARE pathway in the CHO 4× ARE-TK cell line. As to the kind of experiment: ARE reporter assay in CHO 4×ARE-TK-GFP cell line (GFP induction, EthD1 toxicity). The conditions noted are these: for EC50: read-out: Average EC50; for maximal fold induction: read-out: Average fold GFP induction at maximal response. As for the experimental part: Chinese Hamster Ovary (CHO), NSC34 mouse motor neuronal cells, C6 (rat) and 1321N1 (human) astrocytic lines were routinely maintained in DMEM supplemented with 10% FBS and penicillin/streptomycin. […] These plasmids were transfected into CHO, C6 and 1321N1 cell lines using Lipofectamine 2000 (Invitrogen) and following 10-14 days of selection in 0.5 mg/ml G418 they were expanded and selected for basal eGFP expression using fluorescence activated cell sorting (BD, FACSAria) with two sequential cell sorts for each cell line. These mixed populations of stable transfectants with basal eGFP expression were used in subsequent assays and designated 4×ARE-TK-GFP for the ARE containing line and TK-GFP for the control cell line. […]
Confluent cultures of 4×ARE-TK-GFP CHO or TK-GFP CHO expressing cells in 96 or 384-well tissue-culture plates were treated with drug (0.01-100 µM in triplicate) or vehicle (0.1-1% DMSO) in FCS-free DMEM in triplicate for 24 hours. The media was removed and replaced with the same volume of PBS containing 0.3 μM EthD1. […] Non-linear regression was used to fit a sigmoidal dose-response curve on a semi-Log plot to calculate the EC50 using GraphPad Prism (GraphPad Software). The reporter assay was conducted in a similar fashion in C6 and 1321N1 astrocyte cell lines stably transfected with the 4×ARE-TK-GFP and TK-GFP constructs except that Eth D1 was added directly in the media and read prior to washing the cells once and reading the […] signal. […]
The compounds were applied in triplicate to confluent cells in 96 well plates in serum free medium for 24 hours and the induction of GFP measured in a fluorescence plate reader. […]
A general note: Reporter assays use an easily measured gene product as a stand-in for the process of interest.

Data set [2] deals with NSC34 mouse motor neuronal cells.
Data set [3] concerns 1321N1 (human) astrocytic line.
Method: (§1) A simple oxidative stress assay was used to determine whether preconditioning with NRF2-ARE inducing drugs could protect against a subsequent oxidative stress insult (serum withdrawal). The NSC34, C6 and 1321N1 cells were plated in 96 well tissue culture plates to achieve 30% confluency. […] Media was then replaced with serum free, phenol free media for 5 hrs. […] Cell survival assay was then performed on the cells as protection is measured as % reduction in DCF signal, therefore data points were excluded where a decrease in cell number was measured.
(§2) Briefly methylthiazolyldiphenyl-tetrazolium bromide (MTT) was added to the cells and a blank well to a final concentration 0.5 mg/ml and incubated at 37° C. for 1-3 hrs depending on the cell line used.
Data set [4] deals with C6 (rat) astrocytic line.
Method: as §1, §2
Data set [5] relates to C6 (rat) astrocytic line. As to the kind of experiment: C6 oxidative stress assay (serum withdrawal, DCF). To be noted: for IC50: C6, 24 h pre-treatment, serum withdrawal, DCF; for Maximal % reduction in Oxidative stress: C6, DCF fluorescence.
Method: as §1, §2
Data set [6] relates to NSC34 mouse motor neuronal cells. Nature of the data set: NSC34 oxidative stress assay (serum withdrawal, DCF). The conditions noted are these: for Maximal % reduction in Oxidative stress: NSC34, DCF fluorescence, negative = pro-oxidant.
The test system of data set [7] is 1321N1 (human) astrocytic line. As to the kind of experiment: 1321N1 oxidative stress assay (serum withdrawal, DCF). To be noted: for IC50: 1321N1, 24 h pre-treatment, serum withdrawal, DCF; for Maximal % reduction in Oxidative stress: 1321N1, DCF fluorescence.
Method: as §1, §2
Setting [8] is: CHO 4×ARE-TK-GFP, GFP induction, 24 h.

As to `C[C@@H]1C(=O)O[C@H]2[C@H]1CC[C@@]1(C)C=CC(=O)[C@@]3(C)O[C@@]213` [epoxy(4,5α)-4,5-dihydrosantonin], in data set [1] (CHO 4×ARE-TK-GFP, 24 h), the “Average fold GFP induction at maximal response” value amounted to 2.91 fold. Moreover, the “Lowest dose with toxicity” value is 100 µM in data set [1] (CHO ARE reporter assay), 3 µM in data set [2], “none” in data set [3] and “none” in the data set on C6 (rat) astrocytic line [4]. For the same compound, the EC50 (commonly the midpoint of the concentration-response curve) in data set [1] (setting [8]) amounted to 18200 nM. Moreover, the IC50 (in general, the point on the concentration scale where inhibition reaches its midpoint) with C6 (rat) astrocytic line [5] was 2130 nM; in data set [7] it was 662 nM. Besides, the “Maximal % reduction in Oxidative stress” value with C6 (rat) astrocytic line [5] worked out at 62%; in data set [6], 0%; in data set [7], 63%.

Turning to `CC(C)N(C(=O)CCl)c1ccccc1` [Propachlor], the “Lowest dose with toxicity” value in data set [1] (Chinese hamster, 24 h) turned out to be 100 µM; in data set [2] (mouse, 24 h) it was 10 µM; in data set [3] (human, 24 h), 10 µM; in the data set on C6 (rat) astrocytic line [4] (rat, 24 h), 10 µM. The concentration for a half-maximal effect (EC50) in data set [1] (Cricetulus griseus, 24 h) amounted to 1490 nM. Also, in data set [1] (Cricetulus griseus, 24 h), the maximal fold induction stood at 3.25. Besides, the IC50 was determined as 645 nM in the data set on C6 (rat) astrocytic line [5] and 829 nM in data set [7].

As for `CC(=O)OC1CC[C@@]2(C)C(CC[C@H]3[C@@H]4CC=C(C(C)=O)[C@@]4(C)C(=O)C[C@@H]32)C1` (some centres unmarked) [3 acetoxypregn-16-en-12,20-dione], the “Lowest dose with toxicity” value in data set [1] (Chinese hamster, 24 h) was 30 µM; in data set [2] it was “none”; in data set [3], “none”; in the data set on C6 (rat) astrocytic line [4] it was “none”. The maximal fold induction in data set [1] (Cricetulus griseus, 24 h) stood at 3.14. Also, the IC50 in data set [7] was approximately 12400 nM.

On to `C=CC(C1=CC(=O)C(OC)=CC1=O)c1ccccc1` (centres unmarked) [4-Methoxydalbergione], for which the “Average fold GFP induction at maximal response” value in data set [1] (CHO 4×ARE-TK-GFP, 24 h) was determined as 2.11 fold. Moreover, the “Lowest dose with toxicity” value was 100 µM in data set [1] (CHO ARE reporter assay), “none” in the data set on C6 (rat) astrocytic line [5] (C6), “none” in data set [6] (NSC34) and “none” in data set [7] (1321N1). In data set [1] (setting [8]), the EC50 was found to be 11000 nM. Further, the IC50 in the data set with C6 (rat) astrocytic line [5] worked out at 2500 nM. Also, the entries for the “Maximal % reduction in Oxidative stress” value (in the data set on C6 (rat) astrocytic line [5]; in data set [6]; in data set [7]) were 14%, −44% and 43%, respectively.
